# According to patent US11306100B2, “Spirooxindole compounds as GSK3B inhibitors and process for preparation thereof” (COUNCIL OF SCIENTIFIC & INDUSTRIAL RESEARCH, priority 2017, dated 2022):
# Tests used:
# recombinant GSK3β = recombinant GSK3β (Homo sapiens, UniProt P49841); assay: ADP-Glo kinase assay of GSK3β activity; format: biochemical; settings: for IC50: GSK3β kinase activity
# Protocol: Activity of recombinant GSK3β is measured using ADP-Glo Kinase assay according to supplier's standard protocol with minor modifications in 384 well format. Briefly, kinase reaction mixture was prepared by adding […] of recombinant enzyme, 2 μM ATP, 1 μg of enzyme substrate along with test compound or DMSO to a final volume of 5 μl. The kinase reaction was performed by incubating the mixture at room temperature for 17 mins. To correct reaction back ground a substrate blank reaction was also performed. ADP glow reagent (equal volume to reaction mixture) was added to the reaction mixture to deplete any unused ATP added to the kinase reaction and incubated at further 40 min at 27° C. Then 10 μl of kinase detection reagent was added followed by incubation for 30 min at 27° C. to convert ADP to ATP and introduce luciferase to measure kinase activity. The luminescence was measured using luminometer (Perkin Elmer) which is directly proportional to ADP generated in kinase reaction. To determine the amount of ADP produced in kinase reaction and calculate specific activity of the enzyme, a conversion curve is prepared by serial dilution of ADP and ATP mixture. Specific activity of the GSK3β was calculated using the following equation. (ADP(kinase reaction)−ADP(substrate blank)) in mmol)/(Reaction time in min)×(GSK3β in mg).
# PANC-1 cells [1] = assay: Cell viability, Sulforhodamine B assay; format: cell-based
# Protocol: Cell viability was measured using Sulforhodamine B assay. The cytotoxic effect of the compounds with GSK3β inhibitory potential was tested against PANC-1 cells. Initially, the PANC-1 cells were seeded in flat bottom 96-well plate (5000 cells/100 μL) in complete medium and cultured for 18 hrs under standard conditions. After 18 h the cells were treated with either the different concentration of compounds, standard drugs or DMSO as solvent control. The final DMSO concentration to cells was maintained <2% in all cytotoxic assays. Each compound was tested in triplicate and the cytotoxicity was determined as the average of that triplicate. Further, the plates were incubated for another 48 h in an incubator maintained at 37° C. with a constant supply of 5% CO2. The cells were fixed using 10% TCA and incubated for 1 h at 4° C. Then the plates were rinsed carefully with MQ water and air dried at room temperature. To all the wells of MTP plate 0.057% SRB solution was added and kept for approximately 30 min before it was rinsed off using 1% acetic acid. The plates were then air dried and 100 μL of 10 mM tris base was added to each well to solubilize the SRB before absorbance was measured at 510 nm. The measure of absorbance is directly proportional to cell growth and is thus used to calculate % reduction in the rate of cell proliferation according to control DMSO treated cells. All experiments were performed in triplicates; mean % age proliferation values with ±SD were plotted here.
# [2] = test system: cellular GSK3β signalling in PANC-1 cells; assay: Western blot of GSK3β signalling and NFkB target proteins in PANC-1 cells; format: cell-based
# Protocol: The compounds inhibiting GSK3β activity in-vitro added to PANC-1 cells to determine their potential against intracellular GSK3β signalling pathways in cancer cells. Briefly, PANC-1 cells were plated in 60 mm plates (100,000 cells/4 mL) and cultured in the standard DMEM medium containing 10% serum. After culturing for 18 hrs, different concentrations of test compounds or standard controls prepared in DMSO were added to culture media to achieve final concentration 0 to 100 μM of compound to cells. Cells were further continued to grow for 48 h with constant supply of 5% CO2 in humid incubator. The time course (0 to 48 h) experiment was carried out simultaneously with fixed concentration of compound showing 50% growth inhibition. At the end of the experiments, all cells were scraped directly in cold PBS and washed for 3 times before lysis directly in 2D lysis buffer (8M urea, 2M thiourea, 4% CHAPS, 4 mM tris base and 65 mM DTT) for isolation of proteins to perform western blots. The protein concentration was determined by modified Bradford assay.
# To perform western blot, protein extracts were separated on 12% SDS-PAGE and electrophoretically (1 mA/cm^2 membrane for 1 hr) transferred onto the nitrocellulose membrane by semi-dry method. After protein transfer, membrane was stained with Ponceau S solution (0.2% Ponceau S in 3% Trichloroacetic acid) for 2 min to see efficiency of electrophoretic transfer. The membrane was destained in ddH2O to visualize the protein bands and further destained with TBST (20 mM Tris, 138 mM NaCl, pH 7.6 and 0.1% Tween 20) for blotting. To avoid non-specific detection of target proteins, blotted membranes were blocked with BSA (3% BSA in TBST solution). All antibodies against specific protein targets of interest were purchased from Cell Signaling Technology, USA if not mentioned specifically. Then the blots were incubated with antibodies prepared in blocking buffer (1:1000 Antibody to blocking buffer dilution) for 18 h with constant shaking at 4° C. Three washing steps in PBS each for 5 mins removed the excess and non-specific antibodies. For visualization, blots were incubated with secondary antibody conjugated to either horseradish peroxidase or alkaline phosphatase [anti-(mouse IgG) or anti-(rabbit IgG), diluted 1:5000 in TBST] for 1 h at room temperature. After three washes in PBS, the reaction was developed either by addition of LumiGLO substrate (Cell Signaling Technology) followed by capturing on X-ray film or addition of chromogenic NBT (nitro-blue tetrazolium chloride) and BCIP (5-bromo-4-chloro-3′-indolyphosphate p-toluidine salt) substrate for alkaline phosphatase developing purple colored bands. The blots were scanned for densitometry performed using Image-J program.
# PANC-1 cells [3] = assay: Colony formation (soft agar, clonogenic) assay; format: cell-based; settings: TRAIL alone, 10 ηg/mL
# Protocol: To determine the efficiency of GSK3β inhibitors in combination with the TRIAL on anchorage independent growth of PANC-1 cells soft agar assay were performed. The base agar (0.5%) was prepared by mixing equal amounts of 1% agar with 2× media (20% FBS and 2× antibiotics) filled in 6-well plate. Simultaneously, PANC-1 cells (14000/well) mixed with 2× media containing different concentrations of identified compounds alone or in combination with TRAIL mixed with 0.7% of sterile agar to achieve final concentration of […] top agar. The cell suspension was spread on solidified base agar. Then the plates were incubated in CO2 incubator for 14 days and the cells were fed with fresh media containing respective concentration and combination of TRIAL every 3 days. Upon termination (after 14 days of incubation) plates were stained with 0.005% of crystal violet for 1 h and excess stain was removed by washing with MQ. The number of blue colonies were counted using olympus Xi71 microscope.
# Chain of recombinant GSK3β (P49841 whole entry): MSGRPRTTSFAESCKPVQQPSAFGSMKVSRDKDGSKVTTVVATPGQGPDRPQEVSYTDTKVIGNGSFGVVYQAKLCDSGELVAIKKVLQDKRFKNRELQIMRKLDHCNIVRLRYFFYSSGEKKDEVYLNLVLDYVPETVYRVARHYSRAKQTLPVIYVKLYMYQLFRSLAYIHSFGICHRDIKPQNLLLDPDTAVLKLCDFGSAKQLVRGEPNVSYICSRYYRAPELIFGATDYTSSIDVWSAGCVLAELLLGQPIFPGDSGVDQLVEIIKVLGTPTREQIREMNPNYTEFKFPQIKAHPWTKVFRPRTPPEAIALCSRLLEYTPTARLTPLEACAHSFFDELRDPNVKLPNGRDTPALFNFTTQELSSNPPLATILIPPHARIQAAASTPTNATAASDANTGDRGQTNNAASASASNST
Molecule,melting point,IC50 (recombinant GSK3β; 2 μM ATP),further results
"O=C1Nc2ccccc2C12COC(CI)C2 (stereo not shown) [6a, 5-(Iodomethyl)-4,5-dihydro-2H-spiro[furan-3,3′-indolin]-2′-one]",170.6 °C,,
"O=C1Nc2ccccc2C12COC(Cn1cc(-c3ccccc3)nn1)C2 (stereo not shown) [AB-C, 5-((4-Phenyl-1H-1,2,3-triazol-1-yl)methyl)-4,5-dihydro-2H-spiro[furan-3,3′-indolin]-2′-one]",175 to 177 °C,3.59 ± 0.98 µM,"inhibition of GSK3β in in-vitro kinase assays (recombinant GSK3β): potent inhibition; effectiveness against cell growth (PANC-1 cells [1]; FIG. 3B, low concentration of TRAIL (1 ηg/mL)): not effective compared to remaining compounds; effectiveness against cell growth / sensitisation to TRAIL (PANC-1 cells [1]; in combination with TRAIL (10 ηg/mL), FIG. 3A): less effective compared to other molecules; phosphorylation of GSK3β ([2]; PANC-1 cells treated with compound): significantly decreased; β-catenin level ([2]; PANC-1 cells versus control (DMSO)): accumulation of β-catenin"
"CC(C)(O)c1cn(CC2CC3(CO2)C(=O)Nc2ccccc23)nn1 (stereo not shown) [AB-E, 5-((4-(2-Hydroxypropan-2-yl)-1H-1,2,3-triazol-1-yl)methyl)-4,5-dihydro-2H-spiro[furan-3,3′-indolin]-2′-one]",,5.44 ± 1.49 µM,
"CCOC(=O)c1cn(CC2CC3(CO2)C(=O)Nc2ccccc23)nn1 (stereo not shown) [AB-F, Ethyl-1-((2′-oxo-4,5-dihydro-2H-spiro[furan-3,3′-indoline]-5-yl)methyl)-1H-1,2,3-triazole-4-carboxylate]",133 to 134 °C,4.68 ± 0.6 µM,
"O=C1Nc2ccccc2C12COC(CN1CCOCC1)C2 (stereo not shown) [AB-K, 5-(Morpholinomethyl)-4,5-dihydro-2H-spiro [furan-3, 3′-indolin]-2′-one]",126 to 128 °C,4.91 ± 0.56 µM,
"O=C1Nc2ccccc2C12COC(CN1CCSCC1)C2 (stereo not shown) [AB-L, 5-(Thiomorpholinomethyl)-4,5-dihydro-2H-spiro[furan-3,3′-indolin]-2′-one]",,4.06 ± 1.67 µM,
"COC(=O)c1ccc(-c2cc(Cl)ccc2OCc2cn(CC3CC4(CO3)C(=O)Nc3ccccc34)nn2)nc1C (stereo not shown) [AB-N, Methyl-6-(5-chloro-2-((1-((2′-oxo-4,5-dihydro-2H-spiro[furan-3,3′-indoline]-5-yl)methyl)-1H-1,2,3-triazol-4-yl)methoxy)phenyl)-2-methylnicotinate]",120 to 122 °C,,
"O=Cc1ccccc1OCc1cn(CC2CC3(CO2)C(=O)Nc2ccccc23)nn1 (stereo not shown) [AB-P, 2-((1-((2′-Oxo-4,5-dihydro-2H-spiro[furan-3,3′-indoline]-5-yl)methyl)-1H-1,2,3-triazol-4-yl)methoxy)benzaldehyde]",,4.93 ± 0.53 µM,
"O=C1Nc2ccccc2C12COC(CN1CCN(Cc3ccccc3)CC1)C2 (stereo not shown) [AB-R, 5-((4-Benzylpiperazin-1-yl)methyl)-4,5-dihydro-2H-spiro[furan-3,3′-indolin]-2′-one]",141 to 143 °C,,
"CCOC(=O)c1ccc(-c2cc(Cl)cc(Cl)c2OCc2cn(CC3CC4(CO3)C(=O)Nc3ccccc34)nn2)nc1C (stereo not shown) [AB-W, Ethyl6-(3,5-dichloro-2-((1-((2′-oxo-4,5-dihydro-2H-spiro[furan-3,3′-indoline]-5-yl)methyl)-1H-1,2,3-triazol-4-yl)methoxy)phenyl)-2-methylnicotinate]",132 to 135 °C,,
"O=C1Nc2ccccc2C12COC(CN1CCN(c3ccccc3)CC1)C2 (stereo not shown) [AB-X, 5-((4-Phenylpiperazin-1-yl)methyl)-4,5-dihydro-2H-spiro[furan-3,3′-indolin]-2′-one]",130 to 132 °C,,
"CC(=O)Nc1ccccc1 [Acetanilide, reference compound]",,6.53 ± 0.52 µM,
"[Cl-].[Li+] [Licl, LiCl, reference compound]",,,IC50 (recombinant GSK3β): 3990 µM
O=C1Cc2ccccc2N1 [Oxindole],,6.46 ± 0.63 µM,
"Cc1ccc([N+](=O)[O-])cc1S(=O)(=O)N(C)/N=C/c1cnc2ccc(Br)cn12 [PIK-75, reference compound]",,,IC50 (recombinant GSK3β): 0.0176 µM
"TRAIL: Tumor necrosis factor-related apoptosis-inducing ligand (TRAIL) (protein, UniProt P50591 1-281, looked up) Tumor necrosis factor ligand …: MAMMEVQGGPSLGQTCVLIVIFTVLLQSLCVAVTYVYFTNELKQMQDKYSKSGIACFLKEDDSYWDPNDEESMNSPCWQVKWQLRQLVRKMILRTSEETISTVQEKQQNISPLVRERGPQRVAAHITGTRGRSNTLSSPNSKNEKALGRKINSWESSRSGHSFLSNLHLRNGELVIHEKGFYYIYSQTYFRFQEEIKENTKNDKQMVQYIYKYTSYPDPILLMKSARNSCWSKDAEYGLYSIYQGGIFELKENDRIFVSVTNEHLIDMDHEASFFGAFLVG",,,cell death in PANC-1 cells (PANC-1 cells [1]; TRAIL alone (10 ηg/ml)): did not cause any significant cell death; inhibition of colony formation (PANC-1 cells [3]): did not show effective inhibition on colony formation
